Source: patent US7192981B2, “3,4-dihydroxyhydrocinnamic acid derivative” (Bionutrigen Co., Ltd., priority 2005, dated 2007)

Assays:
diabetic ob/ob mice = experiment: Blood glucose and glucose tolerance test in diabetic ob/ob mice; assay type: in vivo, mouse
Text: (§1) Male C57BL/6 and C57BL/6 ob/ob mice were purchased from The Jackson Laboratory (Bar Harbor, Me.), and Sprague-Dawley (SD) rats were purchased from Charles River Laboratories (Wilmington, Mass.). The animals were maintained and bred under specific pathogen-free conditions and provided with sterile food and water ad libitum at the Animal Resources Centre, Faculty of Medicine, University of Calgary. The use and care of the animals used in this study were approved by the Animal Care Committee, Faculty of Medicine, University of Calgary.
DHH105 was dissolved in DMSO and emulsified in olive oil (1:50 v/v). […] Blood glucose levels were measured with a glucometer (One Touch Ultra, Lifescan, Milpitas, Calif.) every morning between 9:00–10:00 a.m. just before injection of DHH105.
(§2) To determine whether treatment with DHH105 can decrease the blood glucose level in STZ-induced diabetic C57BL/6 mice (blood glucose levels>300 mg/dl), mice were treated with DHH105 (150 mg/kd) daily for 2 weeks. […] Blood glucose levels were measured at 0, 15, 30, 60, and 120 min after glucose injection.
The blood glucose lowering effect was further determined in ob/ob mice, a model of type 2 diabetes. […]

[1] = tested on: STZ-induced diabetic C57BL/6 mice; experiment: Blood glucose and glucose tolerance test in STZ-induced diabetic mice; assay type: in vivo, mouse; conditions: 150 mg/kg i.p. daily, at 2 weeks after treatment
Text: as §1
DHH105 was dissolved in DMSO and emulsified in olive oil (1:50 v/v). DHH105, at a dose of 150 mg/kg body weight (b.w.) in 100 μl, was injected intraperitoneally (i.p.) every day into diabetic ob/ob mice (blood glucose level>230 mg/dl) and STZ-treated diabetic C57BL/6 mice (blood glucose level>300 mg/dl). Control mice received the same amount of olive oil without DHH105. Blood glucose levels were measured with a glucometer (One Touch Ultra, Lifescan, Milpitas, Calif.) every morning between 9:00–10:00 a.m. just before injection of DHH105.
as §2

PI3-kinase = PI3-kinase assay in adipocyte lysate; assay type: cell-based, rat; conditions: adipocytes, 500 μM, 2 h
Experimental: Phosphatidylinositide (PI) in DMSO (1 mg/ml) was mixed with an equal volume of buffer A (10 mM HEPES, 100 mM NaCl, 1 mM EGTA, 0.03% NP-40, pH 7.0) and then 10 μl was mixed with an equal volume of buffer B (500 μM [γ-^32P] ATP (10 μCi; Amersham Pharmacia Biotech), 25 mM MgCl2, 15 mM 2-(N-morpholine)ethansulfonic acid, pH 6.8). This mixture was added to 30 μl of adipocyte lysate and incubated for 5 min at room temperature. The kinase reaction was stopped by adding 80 μl of 1 N HCl. A mixture of chloroform and ethanol (1:1, 160 μl) was added to the reaction mixture followed by centrifugation at full speed in a microcentrifuge for 2 min, and 40 μl of the organic phase was extracted. The organic phase was spotted on aluminum-backed silica gel 60 thin layer chromatography (TLC) plates that were pre-soaked in developing solvent (chloroform:methanol:2.2 M NH4OH, 9:7:2), run for 3 h in a TLC chamber with the developing solvent, and air-dried. The amount of phosphoinositides was detected by autoradiography.
In FIG. 7A, the intensity of the PIP3 band was normalized with that of PI, and the relative amount of PIP3 was calculated by (normalized band intensity of sample)/(normalized band intensity of control) (lower panel). Data are means±SEM of three independent experiments.

IRS-1 = experiment: Phosphorylation of IRS-1 in adipose tissue of treated diabetic mice; assay type: in vivo, mouse; conditions: 2 weeks of DHH105 treatment
Experimental: Adipocytes treated with DHH105 for 2 h or insulin for 10 min were homogenized in 5 ml lysis buffer (20 mM Tris, pH 7.4, 1% SDS, 10% glycerol, 150 mM NaCl, 2 mM EDTA, 20 mM NaF, 1 mM NaVO4, 2 mM sodium pyrophosphate, protease inhibitor cocktail, and phosphatase inhibitor cocktail) with a teflon pestle (15 strokes). Homogenized adipocytes were sonicated for 3 min and solubilized for 30 min. The homogenate was centrifuged at 3,000 g for 10 min at 4° C. The protein concentration of the lysate was determined by the Bradford method. After dilution (1 μg/μl protein concentration), the lysates were incubated with anti-insulin receptor-β (IR-β) antibody (Upstate Biotech, Charlottesville, Va.) or anti-IRS-1 antibody (Upstate Biotech) overnight at 4° C. Protein A Sepharose beads (100 μl, Amersham Pharmacia Biotech) were added and the mixture was gently rocked for 2 h at 4° C. […] The membranes were washed and the immunoreactive proteins were detected with an enhanced chemoluminescence western blot detection kit (Amersham Pharmacia Biotech). To examine whether in vivo treatment of STZ-induced diabetic C57BL/6 mice or ob/ob mice with DHH105 also increases phosphorylation of IR-β, and IRS-1, fat tissue was removed from the mice after 2 weeks of DHH105 treatment and phosphorylation of IR-β and IRS-1 was measured by immunoprecipitation and western blot.

[2] = tested on: isolated rat epididymal adipocytes; experiment: Glucose transport assay (2-DOG uptake); assay type: cell-based
[3] = 500 μM, 4 h, 2-DOG 0.125 to 10.0 mM, Lineweaver-Burk

PI3-kinase activity (conversion of PI to PIP3) (PI3-kinase): significantly increased
Compound: O=C(CCc1ccc(O)c(O)c1)OCc1cccc2ccccc12 [DHH105, 3,4-dihydroxyhydrocinnamic acid naphthalene methyl ester]
time after first injection at which blood glucose levels began to decrease (diabetic ob/ob mice; 150 mg/kg i.p. daily): 4 days | blood glucose levels vs vehicle-treated control mice (diabetic ob/ob mice; 150 mg/kg i.p. daily for 2 weeks): significantly lower | blood glucose levels [1]: significantly decreased | phosphorylation of IRS-1 in adipose tissue (IRS-1; STZ-induced diabetic C57BL/6 mice): increased | phosphorylation of IRS-1 in adipose tissue (IRS-1; ob/ob mice): increased | effect on insulin-stimulated glucose transport ([2]; 500 μM DHH105 3.5 h, then insulin 30 min): did not influence | Km value, DHH105-treated vs control adipocytes ([2]; 500 μM, 4 h): no difference | Km [2, 3]: 1780 ± 380 µM | Vmax of glucose transport [2, 3]: 17.14±0.25 mmol/3 min | Vmax of glucose transport relative to untreated control adipocytes ([2]; 500 μM, 4 h, Lineweaver-Burk): 3 fold | incubation time from which 2-DOG uptake was increased ([2]; rat adipocytes, 500 μM): 1 h | increase of glucose transport vs untreated control at optimum concentration ([2]; rat adipocytes, 4 h, DHH105 500 μM, glyburide 25 μM, metformin 250 μM, troglitazone 100 μM): 4 fold | concentration at which 2-DOG uptake peaked ([2]; rat adipocytes, 4 h treatment): 500 µM | effect on glucose transport compared with other anti-diabetic drugs ([2]; rat adipocytes, doses of 500 μM or more): significantly higher effect
